Results published in patent US8623859B2, “Bradykinin B1 antagonists” (Evotec AG, priority 2008, dated 2014).
Where a name gives a salt, the structure may show the parent alone.

Target: T1, human B1 (Homo sapiens, UniProt P46663)
T1 construct: host or cells: CHO-K1
T1 sequence (P46663 1-353): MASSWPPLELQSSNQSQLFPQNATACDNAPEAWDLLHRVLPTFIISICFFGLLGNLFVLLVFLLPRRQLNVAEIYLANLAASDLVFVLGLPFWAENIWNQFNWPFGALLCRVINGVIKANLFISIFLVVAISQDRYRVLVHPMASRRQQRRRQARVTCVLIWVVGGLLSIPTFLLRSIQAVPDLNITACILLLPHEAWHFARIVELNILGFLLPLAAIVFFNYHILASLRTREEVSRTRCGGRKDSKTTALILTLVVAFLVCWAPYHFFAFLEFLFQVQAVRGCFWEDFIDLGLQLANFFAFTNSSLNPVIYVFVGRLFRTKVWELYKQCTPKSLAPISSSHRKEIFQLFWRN
Assay: Calcium flux assay for Bradykinin B1 antagonist, CHO-K1 cell line expressing human B1
Assay type: cell-based
Details: CHO-K1 cells expressing human B1, agonist Lys-(Des-Arg)-Bradykinin, read-out: Potency (IC50 value against human B1)
Outline: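 CHO-K1 cells expressing human B1, loaded with 5 μM Fluo-4AM (2 h, 37° C) in HEPES buffer pH 7.4 with probenecid and 0.1% BSA, were preincubated 30 min at 25° C with compound (8 concentrations, triplicate, 1% DMSO) before B1 agonist addition. Ca2+ fluorescence monitored at 538 nm; background-normalized integrated values plotted against log antagonist concentration.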

Compound | IC50
COc1cc(C)c(S(=O)(=O)N(C)Cc2cc(C(=O)N(C)Cc3cc(F)cc(CN4CCCC4)c3)co2)c(C)c1 [Ex 158, N-[3-Fluoro-5-(pyrrolidin-1-ylmethyl)benzyl]-5-({[(4-methoxy-2,6-dimethylphenyl)sulfonyl](methyl)amino}methyl)-N-methylfuran-3-carboxamide trifluoroacetate] | 10 to 100 nM
COc1cc(C)c(S(=O)(=O)N(C)Cc2nnc(C(=O)N3CCN(CC4CCN(C)CC4)CC3)s2)c(C)c1 [Ex 333, 4-Methoxy-N,2,6-trimethyl-N-{[5-({4-[(1-methylpiperidin-4-yl)methyl]piperazin-1-yl}carbonyl)-1,3,4-thiadiazol-2-yl]methyl}benzenesulfonamide] | 100 to 1000 nM
COc1cc(C)c(S(=O)(=O)N(Cc2nc(C(=O)N3CCN(CC4CCCN(C)C4)CC3)co2)C2CC2)c(C)c1 (centres unmarked) [Ex 192, N-Cyclopropyl-4-methoxy-2,6-dimethyl-N-{[4-({4-[(1-methylpiperidin-3-yl)methyl]piperazin-1-yl}carbonyl)-1,3-oxazol-2-yl]methyl}benzenesulfonamide trifluoroacetate] | < 10 nM
COc1cc(C)c(S(=O)(=O)N(Cc2cc(C(=O)N3CCN(CC(=O)Nc4cccnc4)CC3)co2)C2CC2)c(C)c1 [Ex 117, 2-(4-{[5-({Cyclopropyl[(4-methoxy-2,6-dimethylphenyl)sulfonyl]amino}methyl)furan-3-yl]carbonyl}piperazin-1-yl)-N-pyridin-3-ylacetamide trifluoroacetate] | 100 to 1000 nM
COc1cc(C)c(S(=O)(=O)N(Cc2noc(C(=O)N3CCN(CC4CCCN(C)C4)CC3)n2)C2CC2)c(C)c1 (centres unmarked) [Ex 315, N-Cyclopropyl-4-methoxy-2,6-dimethyl-N-{[5-({4-[(1-methylpiperidin-3-yl)methyl]piperazin-1-yl}carbonyl)-1,2,4-oxadiazol-3-yl]methyl}benzenesulfonamide] | 10 to 100 nM
COc1cc(C)c(S(=O)(=O)N(Cc2cc(C(=O)N3CCN(Cc4cccnc4)CC3)co2)C2CC2)c(C)c1 [Ex 111, N-Cyclopropyl-4-methoxy-2,6-dimethyl-N-[(4-{[4-(pyridin-3-ylmethyl)piperazin-1-yl]carbonyl}furan-2-yl)methyl]benzenesulfonamide trifluoroacetate] | 100 to 1000 nM
COc1cc(C)c(S(=O)(=O)N(C)Cc2cc(C(=O)N3CCCC(c4ccc(CN5CCCC5)cc4)C3)co2)c(C)c1 (centres unmarked) [Ex 95, 4-Methoxy-N,2,6-trimethyl-N-{[4-({3-[4-(pyrrolidin-1-ylmethyl)phenyl]piperidin-1-yl}carbonyl)furan-2-yl]methyl}benzenesulfonamide trifluoroacetamide] | 100 to 1000 nM
COc1cc(C)c(S(=O)(=O)N(Cc2cnc(C(=O)N3CCN(CC4CCN(C)CC4)CC3)o2)C2CC2)c(C)c1 [Ex 245, N-Cyclopropyl-4-methoxy-2,6-dimethyl-N-{[2-({4-[(1-methylpiperidin-4-yl)methyl]piperazin-1-yl}carbonyl)-1,3-oxazol-5-yl]methyl}benzenesulfonamide] | 100 to 1000 nM
COc1cc(C)c(S(=O)(=O)N(C)Cc2cc(C(=O)N(C)Cc3cccc(CN4CCCC4)c3)co2)c(C)c1 [Ex 8, 5-({[(4-methoxy-2,6-dimethylphenyl)sulfonyl](methyl)amino}methyl)-N-methyl-N-[3-(pyrrolidin-1-ylmethyl)benzyl]furan-3-carboxamide] | 10 to 100 nM
COc1cc(C)c(S(=O)(=O)N(C)Cc2nnc(C(=O)N(C)Cc3ccc(CN4CCC(OC)CC4)cc3)o2)c(C)c1 [Ex 283, 5-({[(4-Methoxy-2,6-dimethylphenyl)sulfonyl](methyl)amino}methyl)-N-{4-[(4-methoxypiperidin-1-yl)methyl]benzyl}-N-methyl-1,3,4-oxadiazole-2-carboxamide] | 10 to 100 nM
COc1cc(C)c(S(=O)(=O)N(C)Cc2nc(C(=O)N(C)Cc3ccc(CN4CCC(O)CC4)cc3)co2)c(C)c1 [Ex 166, N-{4-[(4-Hydroxypiperidin-1-yl)methyl]benzyl}-2-({[(4-methoxy-2,6-dimethylphenyl)sulfonyl](methyl)amino}methyl)-N-methyl-1,3-oxazole-4-carboxamide] | < 10 nM
COc1cc(C)c(S(=O)(=O)N(C)Cc2cc(C(=O)N(C)Cc3ccc(CN4CCC(C(=O)N(C)C)C4)cc3)co2)c(C)c1 (centres unmarked) [Ex 131, 1-(4-{[{[5-({[(4-Methoxy-2,6-dimethylphenyl)sulfonyl](methyl)amino}methyl)furan-3-yl]carbonyl}(methyl)amino]methyl}benzyl)-N,N-dimethylpyrrolidine-3-carboxamide] | 100 to 1000 nM
COc1cc(C)c(S(=O)(=O)N(Cc2nc(C(=O)N(C)Cc3ccc(CN4CCCC(O)C4)cc3)co2)C2CC2)c(C)c1 (centres unmarked) [Ex 180, 2-({Cyclopropyl[(4-methoxy-2,6-dimethylphenyl)sulfonyl]amino}methyl)-N-{4-[(3-hydroxypiperidin-1-yl)methyl]benzyl}-N-methyl-1,3-oxazole-4-carboxamide] | < 10 nM
COc1cc(C)c(S(=O)(=O)N(C)Cc2cc(C(=O)N(C)Cc3ccc(CN4CCC(OC)CC4)cc3)co2)c(C)c1 [Ex 127, 5-({[(4-Methoxy-2,6-dimethylphenyl)sulfonyl](methyl)amino}methyl)-N-{4-[(4-methoxypiperidin-1-yl)methyl]benzyl}-N-methylfuran-3-carboxamide] | 10 to 100 nM
COc1cc(C)c(S(=O)(=O)N(C)Cc2nnc(C(=O)N3CCN(Cc4ccc(C(F)(F)F)nc4)CC3)o2)c(C)c1 [Ex 262, 4-Methoxy-N,2,6-trimethyl-N-({5-[(4-{[6-(trifluoromethyl)pyridin-3-yl]methyl}piperazin-1-yl)carbonyl]-1,3,4-oxadiazol-2-yl}methyl)benzenesulfonamide trifluoroacetate] | 100 to 1000 nM
CCc1cc(Br)ccc1S(=O)(=O)N(C)Cc1cc(C(=O)N2CCCN(CCCN3CCCC3)CC2)co1 [Ex 15, 4-bromo-2-ethyl-N-methyl-N-[(4-{[4-(3-pyrrolidin-1-ylpropyl)-1,4-diazepan-1-yl]carbonyl}furan-2-yl)methyl]benzenesulfonamide] | 10 to 100 nM
COc1cc(C)c(S(=O)(=O)N(Cc2nnc(C(=O)N3CCC(CCN4CCCC4)CC3)s2)C2CC2)c(C)c1 [Ex 337, N-Cyclopropyl-4-methoxy-2,6-dimethyl-N-[(5-{[4-(2-pyrrolidin-1-ylethyl)piperidin-1-yl]carbonyl}-1,3,4-thiadiazol-2-yl)methyl]benzenesulfonamide] | < 10 nM
COc1cc(C)c(S(=O)(=O)N(C)Cc2cc(C(=O)N(C)Cc3ccc(-c4cncnc4)cc3)co2)c(C)c1 [Ex 38, 5-({[(4-methoxy-2,6-dimethylphenyl)sulfonyl](methyl)amino}methyl)-N-methyl-N-(4-pyrimidin-5-ylbenzyl)furan-3-carboxamide] | 100 to 1000 nM
COc1cc(C)c(S(=O)(=O)N(Cc2cc(C(=O)N3CCC(N4CCN(C)CC4)CC3)co2)C2CC2)c(C)c1 [Ex 119, N-Cyclopropyl-4-methoxy-2,6-dimethyl-N-[(4-{[4-(4-methylpiperazin-1-yl)piperidin-1-yl]carbonyl}furan-2-yl)methyl]benzenesulfonamide trifluoroacetate] | 100 to 1000 nM
COc1cc(C)c(S(=O)(=O)N(Cc2nc(C(=O)N3CCN(Cc4ccncc4)CC3)co2)C2CC2)c(C)c1 [Ex 162, N-Cyclopropyl-4-methoxy-2,6-dimethyl-N-[(4-{[4-(pyridin-4-ylmethyl)piperazin-1-yl]carbonyl}-1,3-oxazol-2-yl)methyl]benzenesulfonamide trifluoroacetate] | < 10 nM
